Measurements published in US20240360094A1, “COMPOUND FOR TREATING DISEASES RELATED TO CEREBRAL ISCHEMIC INJURY” (JIANGSU CHIA TAI FENGHAI PHARMACEUTICAL CO., LTD., priority 2021, published 2024).
Where two headings read alike, the source gives them in different places. Marks after values point to notes of the source that are not given here. Each block holds one compound with its values, some of them ahead of it.

How the values were obtained:
[1] = Pharmacokinetics of 3-n-butylphthalide in rat plasma (value in literature); type: in vivo; details: rats, p.o. 60 mg/kg vs i.v. 10 mg/kg; calculated based on the literature value of AUC0-inf
[2] = test system: Middle cerebral artery occlusion (MCAO) models of SD rats; test: Rat cerebral stroke model (MCAO), 28 days, grid walking test; type: in vivo; details: 60 mg/kg p.o. q.d, Mean ± SD
Description: (§1) Middle cerebral artery occlusion (MCAO) models of SD rata were constructed by using the suture occlusion method. The rats were administered with the test compound for 28 consecutive days. The pharmacodynamic evaluation on the test compound for cerebral stroke was obtained based on general observation and neurobehavioral assessment.
(§2) After anesthesia induction with 3.0% isoflurane in SD rats (240-280 g), the operation was performed and the right common carotid artery (CCA), and the right-side neck area was dissected to reveal the right common carotid artery (CCA), external carotid artery (ECA) and internal carotid artery (ICA). The ECA was ligated. The ICA was temporarily occluded. Sutures were threaded at both the proximal end and the distal end of CCA. The distal end was securely ligated, and a loosely tied knot was placed at the proximal end. A small incision was made on the CCA between these two sutures. A No. 4-0 suture was inserted through the incision of CCA and slowly and gently pushed into the ICA. The threading was stopped temporarily when reaching the artery clamp of ICA. The pre-ligation suture was further tightened. The artery clamp blocking the blood flow in the ICA was removed, allowing the suture occlusion to be advanced into the ICA until it entered the intracranial region. […] The insertion was stopped at the moment, and the time was recorded. The artery clamp on the CCA was removed and the incision was closed after no active bleeding was observed. The ischemic rats were placed at room temperature to keep their body temperature at 37° C., and anesthesia induction could be carried out 120 min later. The suture was slowly and gradually withdrawn when the rats were maintained under anesthesia, so that the proximal end of the suture returned to the ECA, thereby initiating reperfusion of the middle cerebral artery. Animals received the designated dosage immediately (within 10 min) after reperfusion. This dosing regimen continued once daily for a duration of 28 days, with the day of operation being defined as D1 (Day 1). A total of 5 groups were set, sham surgery group, model control group, NBP group (60 mg/kg, p.o., q.d), compound (I) low dose p.o. group (6 mg/kg, p.o., q.d), and a compound (I) high dose p.o. group (20 mg/kg, p.o., q.d). During administration, all animals were subjected to grid walking tests (D7, D14, D21, and D28, 4 times in total) and novel object recognition tests (adaptation for novel object recognition on D26, test on D27). After the completion of the 28-day dosing period, all surviving animals in the study were euthanized, and their brains were rapidly collected for pathological analysis.

[3] = test system: Middle cerebral artery occlusion (MCAO) models of SD rats; test: Rat cerebral stroke model (MCAO), 28 days, pathological examination of brain; type: in vivo
Description: as §2, with “Middle cerebral artery occlusion (MCAO) models of SD rata were constructed by using the suture occlusion method. The rats were administered with the test compound for 28 consecutive days. The pharmacodynamic evaluation on the test compound for cerebral stroke was obtained based on general observation and neurobehavioral assessment. After anesthesia” for “After anesthesia”, “pathological analysis. (3) Pathological examination: 1) the restoration range: samples with a restoration area range of >30% are considered to be good in recovery, while samples with a restoration area range of ≤30% are considered to be poor in recovery. […] In addition, for the compound (I) low dose group and the compound (I) high dose group, the proportion values of animal samples having >10 erythrocyte-containing blood vessels in the restoration area were 100% and 92.3%, respectively, both being no less than 90%.” for “pathological analysis.”

[4] = rats, value in literature, cited from earlier work
[5] = Distribution in brain tissues of rats (plasma and brain concentration); type: in vivo; details: rat, po, male SD rats, 20 mg/kg p.o.
Description: Plasma and brain tissue samples were collected from the animals at 0.5 h, 1 h, 4 h, and 24 h after administration. Collection of plasma: 0.2 mL of whole blood was collected by using an EP tube containing EDTA-K2 and centrifuged at 3500 g for 10 min, and then the upper plasma was collected and stored at −20° C. Collection of brain tissue: after the animals were euthanized, a proper amount of brain tissues were weighed out and homogenized with methanol in water (80%, w/v) at a ratio of 1:4. The concentration of compound in the plasma and brain tissue samples was quantified by liquid chromatography-tandem mass spectrometry (LC-MS/MS).

[6] = test system: Middle cerebral artery occlusion (MCAO) models of SD rats; test: Rat cerebral stroke model (MCAO), 28 days, novel object recognition test; type: in vivo; details: 60 mg/kg p.o. q.d, Mean ± SD
Description: as §1, §2

[7] = Pharmacokinetic test in rats; type: in vivo, rat; details: male SD rats
Description: Male SD rats (weighing 180-260 g) were administered with compound (I) at a dose of 1.0 mg/kg by tail vein injection and at a dose of 10.0 mg/kg orally. Each group consisted of 3 animals. The solvent for administration was a solution of 5% DMSO+5% polyethoxylated castor oil (Cremophor EL) in normal saline. The rats were fasted for about 12 h before administration and were given ad libitum access to food 4 h after administration, and water was available all the time. Blood was collected from the orbit at about 0.2 mL before administration and 5 min, 15 min, 30 min, 1 h, 2 h, 4 h, 6 h, 8 h, and 24 h after administration. The samples were placed in EDTA-K2 anticoagulant EP tubes in an ice bath, and subjected to low-speed centrifugation at 4° C. and 3500 rpm for 10 min to isolate plasma, which was then stored at −20° C. before analysis. The concentration of compound (I) in the plasma was quantified by liquid chromatography-tandem mass spectrometry (LC-MS/MS). Pharmacokinetic parameters were calculated from the analysis results of the samples using WinNonlin software.

[8] = brain, read-out: Measured value in brain tissues Concentration
[9] = plasma, read-out: Measured value in plasma Concentration

F [1]: 16.6* %
concentration at 0.5 h [5, 8]: 28.5 ng/g
concentration at 1 h [5, 8]: 22.8 ng/g
concentration at 4 h [5, 8]: 10.2 ng/g
concentration at 0.5 h [5, 9]: 0.026 µg/mL
concentration at 1 h [5, 9]: 0.0191 µg/mL
concentration at 4 h [5, 9]: 0.0072 µg/mL
concentration at 24 h [5, 9]: 0.0017 µg/mL
Structure (SMILES): CCCCC1OC(=O)c2ccccc21 (stereo not drawn) [NBP, 3-n-butylphthalide]
Misstep frequency ([2]; 1 W after operation, model control 7.24 ± 3.59): 7.37±3.03 times
Misstep frequency ([2]; 2 W after operation, model control 5.35 ± 4.40): 8.10 ± 2.97 times
Misstep frequency ([2]; 3 W after operation, model control 4.09 ± 3.140): 6.27 ± 2.890 times
Misstep frequency ([2]; 4 W after operation, model control 1.59 ± 0.84): 2.10 ± 1.46 times
Number of samples Restoration area > 30% ([3]; 60 mg/kg p.o. q.d 28 days, N = 14, model control 3 of 17): 3
Number of samples Restoration area ≤ 30% ([3]; 60 mg/kg p.o. q.d 28 days, N = 14, model control 14 of 17): 11
Number of animals with ≤10 erythrocyte-containing blood vessels ([3]; 60 mg/kg p.o. q.d 28 days, N = 15, infarction restoration area, model control 10 of 17): 1
Proportion of samples having >10 erythrocyte-containing blood vessels ([3]; 60 mg/kg p.o. q.d 28 days, model control 41.2): 93.3%
Proportion of samples showing good recovery ([3]; 60 mg/kg p.o. q.d 28 days, restoration area >30%, model control 17.6): 21.4%
AUC0-inf ([4]; i.v. 10 mg/kg): 8.62 µg·h/mL
AUC0-t ([4]; i.v. 10 mg/kg): 7.23 µg·h/mL
MRTinf ([4]; i.v. 10 mg/kg): 2.4 h
T1/2 ([4]; i.v. 10 mg/kg): 2.2 h
AUC0-inf ([4]; p.o. 60 mg/kg): 8.56 µg·h/mL
AUC0-t ([4]; p.o. 60 mg/kg): 7.11 µg·h/mL
Cmax ([4]; p.o. 60 mg/kg): 2.9 µg/mL
MRTinf ([4]; p.o. 60 mg/kg): 3.8 h
T1/2 ([4]; p.o. 60 mg/kg): 2.83 h
Tmax ([4]; p.o. 60 mg/kg): 0.7 h
Sniffing time Familiar object ([6]; model control 2.70 ± 2.22): 1.60 ± 1.01 S
Sniffing time Novel object ([6]; model control 3.82 ± 3.40): 4.94 ± 3.60 S
Recognition index Familiar object (FRI) ([6]; model control 45.19 ± 21.94): 29.03 ± 22.57%
Recognition index Novel object (NRI) ([6]; model control 54.81 ± 21.94): 70.97±22.57%

F ([7]; p.o. 10 mg/kg vs i.v. 1 mg/kg): 144.2%
AUC0-inf ([7]; rat, iv, i.v. 1 mg/kg, plasma): 59.2 µg·h/mL
AUC0-t ([7]; rat, iv, i.v. 1 mg/kg, plasma): 52.5 µg·h/mL
MRT inf ([7]; rat, iv, i.v. 1 mg/kg, plasma): 9.8 h
half-life ([7]; rat, iv, i.v. 1 mg/kg, plasma): 7.5 h
AUC0-inf ([7]; rat, po, p.o. 10 mg/kg, plasma): 854 µg·h/mL
AUC0-t ([7]; rat, po, p.o. 10 mg/kg, plasma): 703 µg·h/mL
Cmax ([7]; rat, po, p.o. 10 mg/kg, plasma): 56.5 µg/mL
MRT inf ([7]; rat, po, p.o. 10 mg/kg, plasma): 13.2 h
Tmax ([7]; rat, po, p.o. 10 mg/kg, plasma): 0.5 h
half-life ([7]; rat, po, p.o. 10 mg/kg, plasma): 9.6 h
concentration at 0.5 h [5, 8]: 8730 ng/g
concentration at 1 h [5, 8]: 5730 ng/g
concentration at 4 h [5, 8]: 5030 ng/g
concentration at 24 h [5, 8]: 285 ng/g
concentration at 0.5 h [5, 9]: 241 µg/mL
concentration at 1 h [5, 9]: 192 µg/mL
concentration at 4 h [5, 9]: 182 µg/mL
concentration at 24 h [5, 9]: 23.5 µg/mL
Structure (SMILES): CCC/C(O)=C1/C(=O)Oc2ccccc21 [Compound (I), (Z)-3-(1-hydroxybutylidene)benzofuran-2 (3H)-one]
Number of animals with >10 erythrocyte-containing blood vessels ([3]; high dose 20 mg/kg p.o. q.d 28 days, N = 13, infarction restoration area, 20 mg/kg): 12**
Number of animals with >10 erythrocyte-containing blood vessels ([3]; high dose 20 mg/kg p.o. q.d 28 days, N = 13, infarction restoration area, listed as compound (I), 20 mg/kg): 12
Number of animals with >10 erythrocyte-containing blood vessels ([3]; low dose 6 mg/kg p.o. q.d 28 days, N = 12, infarction restoration area, 6 mg/kg): 12**
Number of animals with >10 erythrocyte-containing blood vessels ([3]; low dose 6 mg/kg p.o. q.d 28 days, N = 12, infarction restoration area, listed as compound (I), 6 mg/kg): 12
